Data reported in patent EP1024807B1, “USE OF THE COMPOUND 2-METHOXYPHENYL-1-METHYL-5P-METHYLBENZOYL-PYRROL-2-ACETAMIDO ACETATE FOR THE PRODUCTION OF AN ANTI-INFLAMMATORY DRUG WITH PREVENTION OF GASTRIC HYPERSECRETION AND RENAL IMPAIRMENT” (MEDOSAN Ricerca S.r.l., priority 1997, dated 1999).
Entries after “also recorded” stand apart in the source; their conditions may differ.

What was measured:
gastric PGE2 = assay: Effect on gastric PGE2 in the rat; assay type: in vivo
Excerpt: Moreover, as with all the NSAIDs currently aveilable, it inhibits gastric PGE2 in the rat, albeit to a lesser degree than ASA (Table 7).

Rats = assay: Adjuvant arthritis (joint diameter and patellar bone mass); assay type: in vivo; details: for Swelling Diameter difference (L-R) / Joint diameter (mm) Left / Joint diameter (mm) Right: day 0-3; for Joint diameter (mm) Left / Bone mass (mg) Left: left = arthritic joint; for Joint diameter (mm) Right / Bone mass (mg) Right: right = saline control joint; for % Change: ([left-right]/right)X100; for Bone loss Left-Right / Bone mass (mg) Left / Bone mass (mg) Right: patellar bone
Protocol: The drugs were administered daily by oral gavage for 4 days (day 0-3); piroxicam and MED 15 were dissolved in 5% Gum arabic + 0.01% Tween 80, and administered in a volume of 0.5ml. Piroxicam was administered as 3mg/kg and MED 15 was administered as 25, 50 and 100mg/kg doses. Table 8 bis illustrating dosage regimes. L=left stifle joint, R=Right stifle joint.
Under halothane anaesthesia, rats received 200µg of heat-killed finely ground Mycobactyerium tubercolosis in 25µl (80mg/10ml sterile saline) injected intra-articulary into the left stifle joint. The contralateral joint received 25µl 0.9% sterile saline. Control animals received 25µl of 0.9% sterile saline in both knees. SGE 50µl microsyringes with a volume lock calibrated at 25µl were used with 30G stainless steel needles. Solutions were prepared sterile, and aseptic technique was used throughout, with sterilisation of syringes between groups.
The rats were killed by carbon dioxide suffocation. The body weight was noted and the skin overlying the stifle joints was divided and the joint diameters assessed in mm using Mitutoyo vernier callipers (530-312, 0.02mm).
The patellae were dissected, weighed (Sartorius, 0.01mg) and then immersed in 1ml digestion buffer (see below) to remove soft tissue.
Digestive buffer was prepared fresh to the following formula; disodium hydrogen orthophosphate 20mM, EDTA 1mM and diothiothreitol at 2mM. Papain (EC 3.4.22.2) was added at a concentration of 6U/ml. Each patella was digested in 1ml of digestive buffer at 56°C for 4 hours. The residual paterllar bones were dried (100°C 24 hours) and weighed (Sartorius 0.01mg).
Results are presented as follows: left and right parameter alone, the difference between arthritic and contralateral control joint (left-right); and % difference between arthritic and control joints ([left-right]/right]X100).
Calculations were carried out using the spreadsheet program Lotus 123. Statistical comparisons were made between the absolute differences using INSTAT Mann Whitney unpaired two-tailed statistical test.

Anaesthetized Rat = assay: Drug safety trials: blood pressure and cardiovascular system; details: in vivo
Excerpt: From a toxicological viewpoint the drug offers an excellent torability profile.

Salmonella Typhimurium = assay type: cell-based
[1] = tested on: rat isolated stomach strips; assay: Gastric motility in isolated stomach strips, acetylcholine and serotonin as agonists; details: acetilcholine and serotonin as agonists
gastric acid secretion = assay: Gastric acid secretion in the rat; assay type: in vivo
Excerpt: On the basis of the above series of observations, we decided to study the pharmacological behaviour of a number of widely used NSAIDs (including amtolmetin guacyl) towards the gastric mucosa in the rat, as previously described. […] The first hypothesis was that we were deling with an anti-H2 drug, given the fact that its potency could be compared with that of cimetidine.
The introduction of a guaiacol moiety into the amtolmetin guacyl molecule led to the insertion of a vanilloid radical which confers gastroprotective properties to the molecule.

[2] = tested on: patients with rheumatoid arthritis in the active phase; assay: Clinical trials in rheumatoid arthritis; assay type: in vivo, man; details: 150 patients, 30 days; versus ibuprofen, indomethacin, piroxicam, tolmetin; listed as Amtolmetin guacyl
Excerpt: Amtolmetin guacyl was compared with ibuprofen, indomethacin, piroxicam and tolmetin.

[3] = tested on: post-traumatic arthralgia; assay: Clinical comparison in post-traumatic arthralgia; assay type: in vivo, man
Excerpt: The same can be said in the treatment of post-traumatic arthralgia.

COX1 (cyclooxygenase 1) = molecular target: T1, COX1 (cyclooxygenase 1) (Rattus norvegicus, UniProt Q63921); assay: Pharmacological studies in rats: cyclooxygenase inhibition; details: in vivo
T1 construct: the pharmacological studies conducted in rats; from tissue; host or cells: rat (in vivo; tissue not given)
T1 sequence (Q63921 27-602): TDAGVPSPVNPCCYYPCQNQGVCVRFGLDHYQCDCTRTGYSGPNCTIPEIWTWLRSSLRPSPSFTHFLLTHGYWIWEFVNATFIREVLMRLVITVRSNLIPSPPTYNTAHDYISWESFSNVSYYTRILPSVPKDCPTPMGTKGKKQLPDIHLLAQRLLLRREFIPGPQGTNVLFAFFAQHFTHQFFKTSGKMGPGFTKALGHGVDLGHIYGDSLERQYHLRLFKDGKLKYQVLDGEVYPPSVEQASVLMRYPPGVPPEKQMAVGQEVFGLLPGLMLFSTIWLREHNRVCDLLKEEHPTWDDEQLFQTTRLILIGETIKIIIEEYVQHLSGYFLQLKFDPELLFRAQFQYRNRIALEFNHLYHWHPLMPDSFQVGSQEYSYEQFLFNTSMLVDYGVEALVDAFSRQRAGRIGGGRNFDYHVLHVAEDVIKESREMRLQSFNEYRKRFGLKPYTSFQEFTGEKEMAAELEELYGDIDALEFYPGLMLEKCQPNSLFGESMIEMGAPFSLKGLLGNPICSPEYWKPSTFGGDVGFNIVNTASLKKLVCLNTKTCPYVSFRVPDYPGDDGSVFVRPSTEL

COc1ccccc1OC(=O)CNC(=O)Cc1ccc(C(=O)c2ccc(C)cc2)n1C [MED 15, 2-methoxyphenyl-1-methyl-5p-methylbenzoylpyrrol-2-acetamido acetate]
%inhibition (gastric PGE2; gastric PGE2 versus controls): 69.9%
PGE2 (ngtg^Δ tissue)±S.E. (gastric PGE2; gastric tissue, rat, controls 108.7±23.9): 32.7±8.5 nanograms for gram of tissue
Swelling Diameter difference (L-R) (Rats; 25mg/kg daily oral): 2.22 mm
Joint diameter (mm) Left (Rats; 25mg/kg daily oral): 11.57 mm
Joint diameter (mm) Right (Rats; 25mg/kg daily oral): 9.35 mm
Swelling Diameter difference (L-R) (Rats; 50mg/kg daily oral): 2.06 mm
Joint diameter (mm) Left (Rats; 50mg/kg daily oral): 10.95 mm
Joint diameter (mm) Right (Rats; 50mg/kg daily oral): 8.88 mm
Swelling Diameter difference (L-R) (Rats; 100mg/kg daily oral): 1.38 mm
Joint diameter (mm) Left (Rats; 100mg/kg daily oral): 10.26 mm
Joint diameter (mm) Right (Rats; 100mg/kg daily oral): 8.88 mm
protective effect against bone loss compared to piroxicam (Rats; dose of 100mg/kg): not significantly different to piroxicam
% Change (Rats; joint diameter, 25mg/kg daily oral): 24.04%
% Change (Rats; joint diameter, 50mg/kg daily oral): 23.36%
% Change (Rats; joint diameter, 100mg/kg daily oral): 15.71%
% Change (Rats; patellar bone mass, 25mg/kg daily oral): 45.45%
% Change (Rats; patellar bone mass, 50mg/kg daily oral): 40.55%
% Change (Rats; patellar bone mass, 100mg/kg daily oral): 31.85%
protection against bone loss (Rats; patellar bone mass, arthritic groups): dose dependent protective effect
Bone loss Left-Right (Rats; 25mg/kg daily oral): -1.94 mg
Bone mass (mg) Left (Rats; 25mg/kg daily oral): 2.33 mg
Bone mass (mg) Right (Rats; 25mg/kg daily oral): 4.27 mg
Bone loss Left-Right (Rats; 50mg/kg daily oral): -1.69 mg
Bone mass (mg) Left (Rats; 50mg/kg daily oral): 2.49 mg
Bone mass (mg) Right (Rats; 50mg/kg daily oral): 4.18 mg
Bone loss Left-Right (Rats; 100mg/kg daily oral): -1.38 mg
Bone mass (mg) Left (Rats; 100mg/kg daily oral): 2.97 mg
Bone mass (mg) Right (Rats; 100mg/kg daily oral): 4.34 mg
effects on blood pressure and on the cardiovascular system (Anaesthetized Rat): absence of effects
Ames test (Salmonella Typhimurium): absence of amtolmetin guacyl-related damage
motility [1]: down-regulation of motility
basal acid secretion (gastric acid secretion; basal, unstimulated): fails to modify
effect on gastric acid (gastric acid secretion; rat, in vivo): reduction of gastric acid
activity on gastric secretion after CGRP antagonist (gastric acid secretion; with CGRP8-37, peptone-stimulated, fig. 14): blockage
effect on gastric acid secretion after capsaicin receptor antagonist (gastric acid secretion; with capsazepine, peptone-stimulated, fig. 16): inhibited by the capsazepine antagonist
Evaluation of antiphlogistic activity [2]: significantly more rapid and marked anti-inflammatory activity compared to the reference NSAIDs; also recorded: Amtolmetin guacyl demonstrated statistical significant activity more rapid and more marked when compared to the reference NSAIDs in rheumatoid arthritis
duration of effect [3]: 6 h
latency time [3]: 20 min
time to reach peak effect [3]: 1 h
inhibition of COX1 (COX1 (cyclooxygenase 1)): inhibition
